Laboratory results: the supplement of paper PMC13380429

What was measured:
Settings in all cases: 72 h
U2OS [1] = assay: drug sensitivity score (DSS) for viability; higher = more toxic; extreme values may be limits of the assay
Calu-3 [2] = assay: as above
HepG2 [3] = assay: as above
Vero E6 [4] = assay: as above
Caco-2 [5] = assay: as above
U2OS [6] = assay: relative viability EC50 (midpoint between 100% and the lowest measured viability); higher = less toxic
Calu-3 [7] = assay: as above
HepG2 [8] = assay: as above
Vero E6 [9] = assay: as above
U2OS [10] = assay: cell viability relative to DMSO; higher = less toxic
Calu-3 [11] = assay: as above
HepG2 [12] = assay: as above
Vero E6 [13] = assay: as above
Caco-2 [14] = assay: as above
Caco-2 [15] = assay: relative viability EC50 (midpoint between 100% and the lowest measured viability); higher = less toxic

| SMILES | drug sensitivity score (U2OS [1]) | drug sensitivity score (Calu-3 [2]) | drug sensitivity score (HepG2 [3]) | drug sensitivity score (Vero E6 [4]) | drug sensitivity score (Caco-2 [5]) | relative viability EC50 (U2OS [6]) [µM] | relative viability EC50 (Calu-3 [7]) [µM] | relative viability EC50 (HepG2 [8]) [µM] | relative viability EC50 (Vero E6 [9]) [µM] | cell viability (U2OS [10]; 1 nM) [%] | cell viability (U2OS [10]; 10 nM) [%] | cell viability (U2OS [10]; 100 nM) [%] | cell viability (U2OS [10]; 1000 nM) [%] | cell viability (U2OS [10]; 10000 nM) [%] | cell viability (Calu-3 [11]; 1 nM) [%] | cell viability (Calu-3 [11]; 10 nM) [%] | cell viability (Calu-3 [11]; 100 nM) [%] | cell viability (Calu-3 [11]; 1000 nM) [%] | cell viability (Calu-3 [11]; 10000 nM) [%] | cell viability (HepG2 [12]; 1 nM) [%] | cell viability (HepG2 [12]; 10 nM) [%] | cell viability (HepG2 [12]; 100 nM) [%] | cell viability (HepG2 [12]; 1000 nM) [%] | cell viability (HepG2 [12]; 10000 nM) [%] | cell viability (Vero E6 [13]; 1 nM) [%] | cell viability (Vero E6 [13]; 10 nM) [%] | cell viability (Vero E6 [13]; 100 nM) [%] | cell viability (Vero E6 [13]; 1000 nM) [%] | cell viability (Vero E6 [13]; 10000 nM) [%] | cell viability (Caco-2 [14]; 1 nM) [%] | cell viability (Caco-2 [14]; 10 nM) [%] | cell viability (Caco-2 [14]; 100 nM) [%] | cell viability (Caco-2 [14]; 1000 nM) [%] | cell viability (Caco-2 [14]; 10000 nM) [%] | relative viability EC50 (Caco-2 [15]) [µM] |
| --- | --- | --- | --- | --- | --- | --- | --- | --- | --- | --- | --- | --- | --- | --- | --- | --- | --- | --- | --- | --- | --- | --- | --- | --- | --- | --- | --- | --- | --- | --- | --- | --- | --- | --- | --- |
| COc1cc([C@@H]2c3cc4c(cc3[C@@H](O[C@@H]3O[C@@H]5CO[C@@H](C)O[C@H]5[C@H](O)[C@H]3O)[C@H]3COC(=O)[C@H]23)OCO4)cc(OC)c1O [etoposide] | 3.8 | 5.3 | 7.2 | 0.7 | 2.7 | 2.32 | 1.52 | 0.701 | > 10 | 100 | 104 | 99.9 | 94.5 | 46.1 | 83.1 | 92.5 | 90.4 | 81.1 | 40.7 | 111 | 85.2 | 96.3 | 65.6 | 43.1 | 104 | 105 | 103 | 98.7 | 80.2 | 93.5 | 97.1 | 92.2 | 97.7 | 54.2 |  |
| NC(=O)c1nc(F)cnc1O [favipiravir] |  | 0 | 0 | 0 | 0 |  | > 10 | > 10 | > 10 |  |  |  |  |  | 100 | 105 | 98.5 | 111 | 97.7 | 102 | 98.8 | 103 | 79.1 | 118 | 109 | 88.4 | 101 | 96.8 | 103 | 88.5 | 91.7 | 71.8 | 84.7 | 88.6 | > 10 |
| CC1=C(/C=C/C(C)=C/C=C/C(C)=C/C(=O)Nc2ccc(O)cc2)C(C)(C)CCC1 [fenretinide] | 0.1 | 0.9 | 1.2 | 0 | 2.5 | > 10 | > 10 | > 10 | > 10 | 97.7 | 97.8 | 99.5 | 104 | 86.8 | 98.9 | 99.9 | 93.3 | 89.5 | 84 | 99.6 | 92.6 | 99.1 | 91.3 | 80 | 95 | 98.9 | 101 | 101 | 91.1 | 98.7 | 103 | 100 | 93.2 | 67.9 |  |
| O=C1c2ccccc2S(=O)(=O)N1CCCCN1CCN(c2ncccn2)CC1 [ipsapirone] |  | 0 | 0 | 0 | 0 |  | > 10 | > 10 | > 10 |  |  |  |  |  | 106 | 93.9 | 94.3 | 99.6 | 102 | 96.6 | 102 | 103 | 101 | 103 | 97 | 102 | 97.2 | 91.8 | 105 | 104 | 90.5 | 90.7 | 98.2 | 97.8 | > 10 |
| CCCCCCCCCCCCCC(=O)OC(C)C [isopropyl-myristate] |  | 0 |  | 0 | 0 |  | > 10 |  | > 10 |  |  |  |  |  | 98.3 | 105 | 101 | 105 | 94.1 |  |  |  |  |  | 101 | 104 | 91.5 | 96.8 | 96.4 | 111 | 97 | 110 | 96.9 | 98.6 | > 10 |
| C[C@@H]1CC(=O)NN=C1c1ccc(NN=C(C#N)C#N)cc1 [levosimendan] | 1.8 | 0 | 0 | 0 | 0 |  | > 10 | > 10 | > 10 | 99 | 96.8 | 101 | 96.2 | 71.3 | 93.7 | 95.8 | 100 | 97.3 | 109 | 101 | 102 | 98.5 | 99.6 | 88.4 | 95.6 | 102 | 85.7 | 103 | 99 | 97.2 | 113 | 98.9 | 96 | 94.6 | > 10 |
| CNC(=O)[C@@H](NC(=O)[C@H](CC(C)C)[C@H](O)C(=O)NO)C(C)(C)C [marimastat] | 0 | 3.6 | 0 | 0 | 1.3 | > 10 | > 10 | > 10 | > 10 | 98.7 | 100 | 92.9 | 95.9 | 91.5 | 96.2 | 102 | 86.4 | 87.4 | 81.3 | 103 | 99.7 | 121 | 106 | 113 | 108 | 103 | 100 | 104 | 90.7 | 79.5 | 106 | 89.9 | 99.9 | 70.5 |  |
| O=[N+]([O-])c1cncn1CCN1CCOCC1 [nimorazole] |  | 0 | 0 |  | 0 |  | > 10 | > 10 |  |  |  |  |  |  | 102 | 105 | 94.6 | 108 | 93.9 | 118 | 112 | 97.2 | 98.7 | 117 |  |  |  |  |  | 102 | 107 | 94.8 | 106 | 96.3 | > 10 |
| CC[C@@H]([C@H](C)O)n1ncn(-c2ccc(N3CCN(c4ccc(OC[C@@H]5CO[C@@](Cn6cncn6)(c6ccc(F)cc6F)C5)cc4)CC3)cc2)c1=O [posaconazole] | 0 | 0 | 4.5 | 4.3 | 2.4 | > 10 | > 10 | 2.81 | 2.13 | 92.9 | 101 | 93.7 | 90 | 93.8 | 106 | 103 | 91.5 | 92.9 | 93 | 97.8 | 86.9 | 105 | 96.6 | 27.5 | 98.8 | 106 | 93.4 | 92.8 | 43.2 | 97.6 | 99 | 94.3 | 86.7 | 70.2 |  |
| O=C(C=Cc1ccccc1)NC(NC(=S)Nc1ccc(Cl)cc1)C(Cl)(Cl)Cl (configuration not stated) [sal003] | 0 | 0 | 4.6 | 0.5 | 2.2 | > 10 | > 10 | 3.08 | > 10 | 98.8 | 94.6 | 98.2 | 93.7 | 91.5 | 106 | 99.8 | 95.1 | 108 | 95.6 | 104 | 102 | 96.2 | 99 | 19.1 | 94.9 | 102 | 100 | 100 | 81.2 | 97.6 | 96 | 101 | 91.1 | 74.1 |  |
| O=C1NC(O)CCN1[C@@H]1O[C@H](CO)[C@@H](O)[C@H]1O (some centres not stated) [tetrahydrouridine] |  | 0 | 0 |  | 0 |  | > 10 | > 10 |  |  |  |  |  |  | 108 | 102 | 103 | 101 | 96.2 | 112 | 101 | 98.1 | 99.1 | 110 |  |  |  |  |  | 101 | 100 | 95.2 | 102 | 99.2 | > 10 |
| Cc1c(C)c2c(c(C)c1OC(=O)CCC(=O)OCCO)CC[C@@](C)(CCC[C@H](C)CCC[C@H](C)CCCC(C)C)O2 [tocofersolan] | 1.3 | 0 | 0 | 0 | 0 |  | > 10 | > 10 | > 10 | 102 | 105 | 99 | 98.4 | 72.9 | 105 | 101 | 105 | 104 | 95.2 | 98.4 | 99.8 | 95 | 103 | 100 | 97.8 | 97.9 | 95.9 | 94.9 | 99.3 | 96.8 | 105 | 106 | 101 | 90.2 | > 10 |
| Cc1cc(C)cc(C(=O)O[C@H]2C[C@H]3CC[C@@H](C2)N3C)c1 [tropanyl-3,5-dimethylbenzoate] |  | 0 | 0 | 0 | 0 |  | > 10 | > 10 | > 10 |  |  |  |  |  | 99.7 | 107 | 98.2 | 106 | 93.3 | 99.5 | 106 | 102 | 92.7 | 93.2 | 91.8 | 94.3 | 96.3 | 91.7 | 108 | 104 | 97.6 | 92.7 | 102 | 94.9 | > 10 |
| C[C@H](NC(=O)/C(C#N)=C/c1ccc(O)c(O)c1)c1ccccc1 [tyrphostin-AG-835] | 0 | 0 | 1 | 0 | 1.5 | > 10 | > 10 | > 10 | > 10 | 97.2 | 98.5 | 98.3 | 98.3 | 91 | 89.4 | 96.8 | 109 | 97.2 | 98.2 | 109 | 90.9 | 106 | 97.3 | 78.9 | 98 | 90.4 | 98.5 | 89.6 | 89.6 | 92.2 | 97.2 | 90.5 | 93.7 | 74.6 |  |
| CC(=O)N[C@H]1[C@H]([C@H](O)[C@H](O)CO)OC(C(=O)O)=C[C@@H]1NC(=N)N [zanamivir] |  | 0 | 0 | 0 | 0 |  | > 10 | > 10 | > 10 |  |  |  |  |  | 93.8 | 92 | 93.2 | 91.8 | 95.1 | 93.4 | 95.5 | 95.7 | 110 | 107 | 94.6 | 98.4 | 90.6 | 98.7 | 109 | 96.4 | 90.9 | 101 | 101 | 106 | > 10 |
